Data taken from ChEMBL document CHEMBL4002623, “Synthesis and in vitro activity of dicationic indolyl diphenyl ethers as novel potent antibiotic agents against drug-resistant bacteria” (Bioorg Med Chem Lett, 2017).
In brackets after ≈: the same amount, converted by molar mass.

Key:
Staphylococcus aureus [1] = experiment: Antibacterial activity against methicillin-sensitive Staphylococcus aureus ATCC 29213 by agar dilution method; format: functional
Staphylococcus aureus [2] = experiment: Antibacterial activity against methicillin-resistant Staphylococcus aureus 09-13 by agar dilution method; format: functional
[3] = tested on: Staphylococcus epidermidis; experiment: Antibacterial activity against methicillin-sensitive Staphylococcus epidermidis ATCC 12228 by agar dilution method; format: functional
[4] = tested on: Staphylococcus epidermidis; experiment: Antibacterial activity against methicillin-resistant Staphylococcus epidermidis 09-3 by agar dilution method; format: functional
Enterococcus faecalis [5] = experiment: Antibacterial activity against vancomycin-sensitive Enterococcus faecalis ATCC 29212 by agar dilution method; format: functional
Enterococcus faecalis [6] = experiment: Antibacterial activity against vancomycin-resistant Enterococcus faecalis 09-9 by agar dilution method; format: functional
Enterococcus faecium [7] = experiment: Antibacterial activity against vancomycin-resistant Enterococcus faecium ATCC 700221 by agar dilution method; format: functional
Escherichia coli [8] = experiment: Antibacterial activity against extended-spectrum beta-lactamase-negative Escherichia coli ATCC 25922 by agar dilution method; format: functional
Escherichia coli [9] = experiment: Antibacterial activity against extended-spectrum beta-lactamase-positive Escherichia coli 09-1 by agar dilution method; format: functional
Klebsiella pneumoniae [10] = experiment: Antibacterial activity against extended-spectrum beta-lactamase-negative Klebsiella pneumoniae 7 by agar dilution method; format: functional
Klebsiella pneumoniae [11] = experiment: Antibacterial activity against extended-spectrum beta-lactamase-positive Klebsiella pneumoniae 09-25 by agar dilution method; format: functional
Klebsiella pneumoniae [12] = experiment: Antibacterial activity against Klebsiella pneumoniae ATCC BAA-2146 expressing NDM-1 by agar dilution method; format: functional
[13] = Cytotoxicity against HEK293T cells after 48 hrs by MTS assay; format: cell-based, HEK-293T; conditions: human
Enterococcus faecium [14] = experiment: Antibacterial activity against vancomycin-sensitive Enterococcus faecium 09-10 by agar dilution method; format: functional
Staphylococcus aureus [15] = experiment: Antibacterial activity against methicillin-resistant Staphylococcus aureus ATCC 33591 by agar dilution method; format: functional
Staphylococcus aureus [16] = experiment: Antibacterial activity against methicillin-sensitive Staphylococcus aureus 15 by agar dilution method; format: functional
Staphylococcus aureus [17] = experiment: Antibacterial activity against methicillin-sensitive Staphylococcus aureus 09-6 by agar dilution method; format: functional
[18] = tested on: Staphylococcus epidermidis; experiment: Antibacterial activity against methicillin-sensitive Staphylococcus epidermidis 09-9 by agar dilution method; format: functional
Enterococcus faecalis [19] = experiment: Antibacterial activity against vancomycin-resistant Enterococcus faecalis ATCC 51299 by agar dilution method; format: functional
Enterococcus faecalis [20] = experiment: Antibacterial activity against vancomycin-sensitive Enterococcus faecalis 09-8 by agar dilution method; format: functional
Enterococcus faecium [21] = experiment: Antibacterial activity against vancomycin-resistant Enterococcus faecium 05-8 by agar dilution method; format: functional
Escherichia coli [22] = experiment: Antibacterial activity against extended-spectrum beta-lactamase-negative Escherichia coli 1515 by agar dilution method; format: functional
Escherichia coli [23] = experiment: Antibacterial activity against extended-spectrum beta-lactamase-negative Escherichia coli 09-20 by agar dilution method; format: functional
Klebsiella pneumoniae [24] = experiment: Antibacterial activity against extended-spectrum beta-lactamase-positive Klebsiella pneumoniae ATCC 700603 by agar dilution method; format: functional
Klebsiella pneumoniae [25] = experiment: Antibacterial activity against extended-spectrum beta-lactamase-negative Klebsiella pneumoniae 09-8 by agar dilution method; format: functional
Pseudomonas aeruginosa [26] = experiment: Antibacterial activity against Pseudomonas aeruginosa ATCC 27853 by agar dilution method; format: functional
Pseudomonas aeruginosa [27] = experiment: Antibacterial activity against Pseudomonas aeruginosa PAO1 by agar dilution method; format: functional
Pseudomonas aeruginosa [28] = experiment: Antibacterial activity against Pseudomonas aeruginosa 09-14 by agar dilution method; format: functional
[29] = tested on: Acinetobacter calcoaceticus; experiment: Antibacterial activity against Acinetobacter calcoaceticus ATCC 19606 by agar dilution method; format: functional
Enterobacter cloacae = experiment: Antibacterial activity against Enterobacter cloacae 45301 by agar dilution method; format: functional
Klebsiella aerogenes = experiment: Antibacterial activity against Enterobacter aerogenes 45102 by agar dilution method; format: functional
Serratia marcescens = experiment: Antibacterial activity against Serratia marcescens 41002 by agar dilution method; format: functional
Morganella morganii = experiment: Antibacterial activity against Morganella morganii ATCC 25830 by agar dilution method; format: functional
Providencia rettgeri = experiment: Antibacterial activity against Providencia rettgeri ATCC 31052 by agar dilution method; format: functional
Proteus vulgaris = experiment: Antibacterial activity against Proteus vulgaris ATCC 29905 by agar dilution method; format: functional
Proteus mirabilis = experiment: Antibacterial activity against Proteus mirabilis 09-1 by agar dilution method; format: functional
Salmonella typhi = experiment: Antibacterial activity against Salmonella typhi H901 by agar dilution method; format: functional, Salmonella enterica subsp. enterica serovar Typhi; conditions: Salmonella enterica
Citrobacter freundii = experiment: Antibacterial activity against Citrobacter freundii ATCC 43864 by agar dilution method; format: functional
Klebsiella pneumoniae [30] = experiment: Potency index, ratio of levofloxacin MIC to test compound MIC for Klebsiella pneumoniae ATCC BAA-2146 expressing NDM-1; format: functional

## CN(C)C(=N)c1ccc2cc(-c3ccc(Oc4ccc(-c5cc6ccc(C(=N)N(C)C)cc6[nH]5)cc4)cc3)[nH]c2c1
Staphylococcus aureus [1]
  MIC: 0.25 µg/mL (≈ 0.462 µM)
Staphylococcus aureus [2]
  MIC: 0.25 µg/mL (≈ 0.462 µM)
[3]
  MIC: 0.125 µg/mL (≈ 0.231 µM)
[4]
  MIC: 0.25 µg/mL (≈ 0.462 µM)
Enterococcus faecalis [5]
  MIC: 0.5 µg/mL (≈ 0.925 µM)
Enterococcus faecalis [6]
  MIC: 2 µg/mL (≈ 3.7 µM)
Enterococcus faecium [7]
  MIC: 2 µg/mL (≈ 3.7 µM)
Escherichia coli [8]
  MIC: 4 µg/mL (≈ 7.4 µM)
Escherichia coli [9]
  MIC: 8 µg/mL (≈ 14.8 µM)
Klebsiella pneumoniae [10]
  MIC: 8 µg/mL (≈ 14.8 µM)
Klebsiella pneumoniae [11]
  MIC: 8 µg/mL (≈ 14.8 µM)
Klebsiella pneumoniae [12]
  MIC: 8 µg/mL (≈ 14.8 µM)
[13]
  CC50 at 48 h: 21.6 µg/mL (≈ 40 µM)
Enterococcus faecium [14]
  MIC: 2 µg/mL (≈ 3.7 µM)
Staphylococcus aureus [15]
  MIC: 0.25 µg/mL (≈ 0.462 µM)
Staphylococcus aureus [16]
  MIC: 0.25 µg/mL (≈ 0.462 µM)
Staphylococcus aureus [17]
  MIC: 0.25 µg/mL (≈ 0.462 µM)
[18]
  MIC: 0.25 µg/mL (≈ 0.462 µM)
Enterococcus faecalis [19]
  MIC: 1 µg/mL (≈ 1.85 µM)
Enterococcus faecalis [20]
  MIC: 2 µg/mL (≈ 3.7 µM)
Enterococcus faecium [21]
  MIC: 2 µg/mL (≈ 3.7 µM)
Escherichia coli [22]
  MIC: 4 µg/mL (≈ 7.4 µM)
Escherichia coli [23]
  MIC: 8 µg/mL (≈ 14.8 µM)
Klebsiella pneumoniae [24]
  MIC: 8 µg/mL (≈ 14.8 µM)
Klebsiella pneumoniae [25]
  MIC: 8 µg/mL (≈ 14.8 µM)
Pseudomonas aeruginosa [26]
  MIC: 128 µg/mL (≈ 237 µM)
Pseudomonas aeruginosa [27]
  MIC: > 128 µg/mL
Pseudomonas aeruginosa [28]
  MIC: > 128 µg/mL
[29]
  MIC: > 128 µg/mL
Enterobacter cloacae
  MIC: 64 µg/mL (≈ 118 µM)
Klebsiella aerogenes
  MIC: 8 µg/mL (≈ 14.8 µM)
Serratia marcescens
  MIC: 32 µg/mL (≈ 59.2 µM)
Morganella morganii
  MIC: > 128 µg/mL
Providencia rettgeri
  MIC: 8 µg/mL (≈ 14.8 µM)
Proteus vulgaris
  MIC: 8 µg/mL (≈ 14.8 µM)
Proteus mirabilis
  MIC: 32 µg/mL (≈ 59.2 µM)
Salmonella typhi
  MIC: 16 µg/mL (≈ 29.6 µM)
Citrobacter freundii
  MIC: 8 µg/mL (≈ 14.8 µM)
Klebsiella pneumoniae [30]
  Ratio: >16
